Measured values as given in ChEMBL document CHEMBL6127085, “Design, synthesis and evaluation of novel LpxC inhibitors containing a hydrazone moiety as Gram-negative antibacterial agents” (Eur J Med Chem, 2024).
Values after ≈ are worked out from the molar mass of the structure shown.

Assays:
[1] = Intrinsic clearance in rat; assay type: ADME; conditions: read-out: CLH
[2] = Metabolic stability in human liver microsomes assessed as half life at 1 uM preincubated for 5 mins followed by NADPH addition and measured after 5 to 60 mins by LC-MS analysis; assay type: ADME, Microsome; conditions: liver microsomes, time 10-65 min
[3] = MRT (0 to t) in male Sprague-Dawley rat at 1 mg/kg, iv measured upto 24 hrs by LC-MS analysis; assay type: ADME, organism-based; conditions: in vivo
[4] = Oral bioavailability in male Sprague-Dawley rat at 10 mg/kg, IG measured upto 24 hrs by LC-MS analysis; assay type: ADME, organism-based; conditions: in vivo
Pseudomonas aeruginosa [5] = assay: Antibacterial activity against Pseudomonas aeruginosa ATCC27853 assessed as reduction in bacterial growth measured after 18 to 24 hrs by CLSI protocol based method; assay type: functional; conditions: time 18-24 hrs
[6] = Plasma protein binding in human assessed as drug recovery at 1 uM incubated for 6 hrs by LC-MS/MS analysis; assay type: ADME, cell-free; conditions: read-out: Drug recovery
[7] = Plasma protein binding in rat assessed as drug recovery at 1 uM incubated for 6 hrs by LC-MS/MS analysis; assay type: ADME, cell-free; conditions: read-out: Drug recovery
[8] = Metabolic stability in rat liver microsomes assessed as half life at 1 uM preincubated for 5 mins followed by NADPH addition and measured after 5 to 60 mins by LC-MS analysis; assay type: ADME, Microsome; conditions: liver microsomes, time 10-65 min
[9] = Stability in human plasma at 1 uM incubated for 6 hrs by LC-MS/MS analysis; assay type: ADME, cell-free; conditions: read-out: Stability
[10] = Metabolic stability in mouse liver microsomes assessed as intrinsic clearance at 1 uM preincubated for 5 mins followed by NADPH addition and measured after 5 to 60 mins by LC-MS analysis; assay type: ADME, Microsome; conditions: liver microsomes, time 10-65 min, read-out: CLH
Klebsiella pneumoniae [11] = assay: Antibacterial activity against Klebsiella pneumoniae ATCC700603 assessed as reduction in bacterial growth measured after 18 to 24 hrs by CLSI protocol based method; assay type: functional; conditions: time 18-24 hrs
[12] = Half life in male Sprague-Dawley rat at 10 mg/kg, IG measured upto 24 hrs by LC-MS analysis; assay type: ADME, organism-based; conditions: in vivo, po
[13] = Clearance in male Sprague-Dawley rat at 1 mg/kg, iv measured upto 24 hrs by LC-MS analysis; assay type: ADME, organism-based; conditions: in vivo
[14] = Tmax in male Sprague-Dawley rat at 10 mg/kg, IG measured upto 24 hrs by LC-MS analysis; assay type: ADME, organism-based; conditions: in vivo, po
[15] = Intrinsic clearance in mouse; assay type: ADME, organism-based; conditions: read-out: CLH
[16] = Metabolic stability in human liver microsomes assessed as intrinsic clearance at 1 uM preincubated for 5 mins followed by NADPH addition and measured after 5 to 60 mins by LC-MS analysis; assay type: ADME, Microsome; conditions: time 10-65 min, read-out: CLH
[17] = Half life in male Sprague-Dawley rat at 1 mg/kg, iv measured upto 24 hrs by LC-MS analysis; assay type: ADME, organism-based; conditions: in vivo
[18] = Plasma protein binding in mouse assessed as drug recovery at 1 uM incubated for 6 hrs by LC-MS/MS analysis; assay type: ADME, cell-free; conditions: read-out: Drug recovery
[19] = Volume of distribution at steady state in male Sprague-Dawley rat at 1 mg/kg, iv measured upto 24 hrs by LC-MS analysis; assay type: ADME, organism-based; conditions: in vivo, read-out: Vdss
Klebsiella pneumoniae [20] = assay: Antibacterial activity against Klebsiella pneumoniae clinical isolate KPN+22-1 assessed as reduction in bacterial growth measured after 18 to 24 hrs by CLSI protocol based method; assay type: functional; conditions: time 18-24 hrs
[21] = Intrinsic clearance in human; assay type: ADME; conditions: read-out: CLH
[22] = AUC (0 to t) in male Sprague-Dawley rat at 10 mg/kg, IG measured upto 24 hrs by LC-MS analysis; assay type: ADME, organism-based; conditions: in vivo, po
HepG2 = assay: Cytotoxicity against human HepG2 cells assessed as inhibition of cell growth measured after 48 hrs by MTT assay; assay type: functional, cell-based; conditions: HepG2, 48 h
[23] = Stability in mouse plasma at 1 uM incubated for 6 hrs by LC-MS/MS analysis; assay type: ADME, cell-free; conditions: read-out: Stability
[24] = AUC (0 to t) in male Sprague-Dawley rat at 1 mg/kg, iv measured upto 24 hrs by LC-MS analysis; assay type: ADME, organism-based; conditions: in vivo
[25] = Stability in rat plasma at 1 uM incubated for 6 hrs by LC-MS/MS analysis; assay type: ADME, cell-free; conditions: read-out: Stability
Pseudomonas aeruginosa [26] = assay: Antibacterial activity against Pseudomonas aeruginosa clinical isolate PAE22-1 assessed as reduction in bacterial growth measured after 18 to 24 hrs by CLSI protocol based method; assay type: functional; conditions: time 18-24 hrs
[27] = Metabolic stability in mouse liver microsomes assessed as half life at 1 uM preincubated for 5 mins followed by NADPH addition and measured after 5 to 60 mins by LC-MS analysis; assay type: ADME, Microsome; conditions: liver microsomes, time 10-65 min
[28] = Cmax in male Sprague-Dawley rat at 10 mg/kg, IG measured upto 24 hrs by LC-MS analysis; assay type: ADME, organism-based; conditions: in vivo, po
Escherichia coli = assay: Antibacterial activity against Escherichia coli ATCC25922 assessed as reduction in bacterial growth measured after 18 to 24 hrs by CLSI protocol based method; assay type: functional; conditions: time 18-24 hrs
[29] = MRT (0 to t) in male Sprague-Dawley rat at 10 mg/kg, IG measured upto 24 hrs by LC-MS analysis; assay type: ADME, organism-based; conditions: in vivo, po
[30] = Metabolic stability in rat liver microsomes assessed as intrinsic clearance at 1 uM preincubated for 5 mins followed by NADPH addition and measured after 5 to 60 mins by LC-MS analysis; assay type: ADME, Microsome; conditions: liver microsomes, time 10-65 min, read-out: CLH

C[C@@H](O)[C@H](NC(=O)c1ccc(C#Cc2ccc(CN3CCOCC3)cc2)cc1)C(=O)NO
CLint scaled [1]: 115 mL/min/kg | half-life at 1 µM [2]: 16.8 h | MRT last at 24 h [3]: 0.24 h | bioavailability [4]: 10.6% | MIC (Pseudomonas aeruginosa [5]): 4 µg/mL (≈ 9.14 µM) | recovery at 6 h, 1 µM [6]: 101% | recovery at 6 h, 1 µM [7]: 91.7% | half-life at 1 µM [8]: 0.362 h | remaining at 6 h, 1 µM [9]: 106% | microsomal CLint at 1 µM [10]: 18.8 µL/min/mg | MIC (Klebsiella pneumoniae [11]): 8 µg/mL (≈ 18.3 µM) | half-life [12]: 1.12 h | clearance [13]: 66.7 mL/min/kg | Tmax [14]: 0.25 h | CLint scaled [15]: 74.2 mL/min/kg | microsomal CLint at 1 µM [16]: 1.38 µL/min/mg | half-life [17]: 0.29 h | recovery at 6 h, 1 µM [18]: 98.6% | Vd [19]: 0.98 L/kg | MIC (Klebsiella pneumoniae [20]): 1 µg/mL (≈ 2.29 µM) | CLint scaled [21]: 1.3 mL/min/kg | AUC(0-t) at 24 h [22]: 243 ng·h/mL | IC50 (HepG2): > 30 µM | remaining at 6 h, 1 µM [23]: 93.2% | AUC(0-t) at 24 h [24]: 249 ng·h/mL | remaining at 6 h, 1 µM [25]: 94.5% | MIC (Pseudomonas aeruginosa [26]): 2 µg/mL (≈ 4.57 µM) | half-life at 1 µM [27]: 1.23 h | Cmax [28]: 262 ng/mL | MIC (Escherichia coli): 0.5 µg/mL (≈ 1.14 µM) | MRT last at 24 h [29]: 1.09 h | microsomal CLint at 1 µM [30]: 64 µL/min/mg

C[C@@H](O)[C@H](NC(=O)c1ccc(C#Cc2ccc(/C=N/N3CCNCC3)cc2)cc1)C(=O)NO
MIC (Pseudomonas aeruginosa [5]): > 64 µg/mL | MIC (Klebsiella pneumoniae [11]): > 64 µg/mL | MIC (Klebsiella pneumoniae [20]): > 64 µg/mL | MIC (Pseudomonas aeruginosa [26]): > 64 µg/mL | MIC (Escherichia coli): 4 µg/mL (≈ 8.9 µM)

CCN1CCN(/N=C/c2ccc(C#Cc3ccc(C(=O)N[C@H](C(=O)NO)[C@@H](C)O)cc3)cn2)CC1
MIC (Pseudomonas aeruginosa [5]): 4 µg/mL (≈ 8.36 µM) | MIC (Klebsiella pneumoniae [11]): > 64 µg/mL | MIC (Klebsiella pneumoniae [20]): 64 µg/mL (≈ 134 µM) | MIC (Pseudomonas aeruginosa [26]): 8 µg/mL (≈ 16.7 µM) | MIC (Escherichia coli): 16 µg/mL (≈ 33.4 µM)

C[C@@H](O)[C@H](NC(=O)c1ccc(C#Cc2ccc(/C=N/N3CCN(C(=O)C4CC4)CC3)cc2)cc1)C(=O)NO
CLint scaled [1]: 9.09 mL/min/kg | half-life at 1 µM [2]: 4.9 h | MIC (Pseudomonas aeruginosa [5]): 2 µg/mL (≈ 3.86 µM) | half-life at 1 µM [8]: 4.58 h | microsomal CLint at 1 µM [10]: 12.2 µL/min/mg | MIC (Klebsiella pneumoniae [11]): 16 µg/mL (≈ 30.9 µM) | CLint scaled [15]: 48 mL/min/kg | microsomal CLint at 1 µM [16]: 4.73 µL/min/mg | MIC (Klebsiella pneumoniae [20]): 2 µg/mL (≈ 3.86 µM) | CLint scaled [21]: 4.47 mL/min/kg | MIC (Pseudomonas aeruginosa [26]): 4 µg/mL (≈ 7.73 µM) | half-life at 1 µM [27]: 2.08 h | MIC (Escherichia coli): 0.03 µg/mL (≈ 0.058 µM) | microsomal CLint at 1 µM [30]: 5.05 µL/min/mg

C[C@@H](O)[C@H](NC(=O)c1ccc(C#Cc2ccc(/C=N/N3CCN(C)CC3)nc2)cc1)C(=O)NO
MIC (Pseudomonas aeruginosa [5]): 8 µg/mL (≈ 17.2 µM) | MIC (Klebsiella pneumoniae [20]): 32 µg/mL (≈ 68.9 µM) | MIC (Pseudomonas aeruginosa [26]): 8 µg/mL (≈ 17.2 µM) | MIC (Escherichia coli): 8 µg/mL (≈ 17.2 µM)

CC(=O)N1CCN(/N=C/c2ccc(C#Cc3ccc(C(=O)N[C@H](C(=O)NO)[C@@H](C)O)cc3)cc2)CC1
MIC (Pseudomonas aeruginosa [5]): > 64 µg/mL | MIC (Klebsiella pneumoniae [11]): > 64 µg/mL | MIC (Klebsiella pneumoniae [20]): 2 µg/mL (≈ 4.07 µM) | MIC (Pseudomonas aeruginosa [26]): 2 µg/mL (≈ 4.07 µM) | MIC (Escherichia coli): 0.5 µg/mL (≈ 1.02 µM)

CCOC(=O)N1CCN(/N=C/c2ccc(C#Cc3ccc(C(=O)N[C@H](C(=O)NO)[C@@H](C)O)cc3)cc2)CC1
MIC (Pseudomonas aeruginosa [5]): 8 µg/mL (≈ 15.3 µM) | MIC (Klebsiella pneumoniae [11]): 16 µg/mL (≈ 30.7 µM) | MIC (Klebsiella pneumoniae [20]): 4 µg/mL (≈ 7.67 µM) | MIC (Pseudomonas aeruginosa [26]): 8 µg/mL (≈ 15.3 µM) | MIC (Escherichia coli): 0.06 µg/mL (≈ 0.115 µM)

C#CCN1CCN(/N=C/c2ccc(C#Cc3ccc(C(=O)N[C@H](C(=O)NO)[C@@H](C)O)cc3)cc2)CC1
MIC (Pseudomonas aeruginosa [5]): 2 µg/mL (≈ 4.1 µM) | MIC (Klebsiella pneumoniae [11]): 32 µg/mL (≈ 65.6 µM) | MIC (Klebsiella pneumoniae [20]): 2 µg/mL (≈ 4.1 µM) | MIC (Pseudomonas aeruginosa [26]): 8 µg/mL (≈ 16.4 µM) | MIC (Escherichia coli): 0.03 µg/mL (≈ 0.0615 µM)

C[C@@H](O)[C@H](NC(=O)c1ccc(C#Cc2ccc(/C=N/N3CCCCC3)nc2)cc1)C(=O)NO
MIC (Pseudomonas aeruginosa [5]): 16 µg/mL (≈ 35.6 µM) | MIC (Klebsiella pneumoniae [20]): 8 µg/mL (≈ 17.8 µM) | MIC (Pseudomonas aeruginosa [26]): 2 µg/mL (≈ 4.45 µM) | MIC (Escherichia coli): 1 µg/mL (≈ 2.22 µM)

CCC(=O)N1CCN(/N=C/c2ccc(C#Cc3ccc(C(=O)N[C@H](C(=O)NO)[C@@H](C)O)cc3)cn2)CC1
MIC (Pseudomonas aeruginosa [5]): 16 µg/mL (≈ 31.6 µM) | MIC (Klebsiella pneumoniae [11]): > 64 µg/mL | MIC (Klebsiella pneumoniae [20]): 32 µg/mL (≈ 63.2 µM) | MIC (Pseudomonas aeruginosa [26]): 16 µg/mL (≈ 31.6 µM) | MIC (Escherichia coli): 8 µg/mL (≈ 15.8 µM)

C[C@@H](O)[C@H](NC(=O)c1ccc(C#Cc2ccc(/C=N/N3CCN(C(=O)C(C)(C)C)CC3)nc2)cc1)C(=O)NO
MIC (Pseudomonas aeruginosa [5]): 16 µg/mL (≈ 29.9 µM) | MIC (Klebsiella pneumoniae [11]): > 64 µg/mL | MIC (Klebsiella pneumoniae [20]): 16 µg/mL (≈ 29.9 µM) | MIC (Pseudomonas aeruginosa [26]): 16 µg/mL (≈ 29.9 µM) | MIC (Escherichia coli): 4 µg/mL (≈ 7.48 µM)

C[C@@H](O)[C@H](NC(=O)c1ccc(C#Cc2ccc(/C=N/N3CCOCC3)nc2)cc1)C(=O)NO
MIC (Pseudomonas aeruginosa [5]): 16 µg/mL (≈ 35.4 µM) | MIC (Klebsiella pneumoniae [20]): 16 µg/mL (≈ 35.4 µM) | MIC (Pseudomonas aeruginosa [26]): 2 µg/mL (≈ 4.43 µM) | MIC (Escherichia coli): 4 µg/mL (≈ 8.86 µM)

CCN1CCN(/N=C/c2ccc(C#Cc3ccc(C(=O)N[C@H](C(=O)NO)[C@@H](C)O)cc3)cc2)CC1
MIC (Pseudomonas aeruginosa [5]): 4 µg/mL (≈ 8.38 µM) | MIC (Klebsiella pneumoniae [11]): 16 µg/mL (≈ 33.5 µM) | MIC (Klebsiella pneumoniae [20]): 4 µg/mL (≈ 8.38 µM) | MIC (Pseudomonas aeruginosa [26]): 2 µg/mL (≈ 4.19 µM) | MIC (Escherichia coli): 0.5 µg/mL (≈ 1.05 µM)
